Data: patent publication US10463644B2, “Uses of sesquiterpene lactone compounds and their derivatives in drugs preparation” (ACCENDATECH, priority 2013, dated 2019)
Like-named read-outs stand apart in the source and are kept apart here.

Tests used:
[1] = tested on: IL-1β secreted by synoviocyte; assay: Content of IL-1β in culture supernatant of synoviocyte of RA model rats given test compound; assay type: in vivo; settings: rat RA model, dose 30 mg/kg.2d; normal control 0.16 ± 0.034, NaCl 0.49 ± 0.136
In short: (§1)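 Values reflect mediator secretion by synoviocytes taken from arthritic rats dosed at 30 mg/kg.2d. Normal and NaCl groups served as references.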

cancer stem cells = assay: Survival rate of cancer stem cells after test compound is added (flow cytometry, Annexin V-FITC/PI, clinical specimen); assay type: cell-based, patient; settings: Homo sapiens, 18 h
In short: (§2)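 Patient tumour or leukaemia cells, identified by cancer-specific stem-cell markers (CD34+/CD38+ for AML), are treated with compound for 18 hours in serum-free IMDM. Apoptosis is then measured as Annexin V-FITC/PI staining by flow cytometry.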

[2] = tested on: TNF-α secreted by synoviocyte; assay: Content of TNF-α in culture supernatant of synoviocyte of RA model rats given test compound; assay type: in vivo; settings: rat RA model, dose 30 mg/kg.2d; normal control 0.38 ± 0.027, NaCl 0.74 ± 0.098
In short: as §1

cancer cells = assay: Survival rate of cancer cells after test compound is added (flow cytometry, Annexin V-FITC/PI, clinical specimen); assay type: cell-based, patient; settings: Homo sapiens, 18 h, read-out: Survival rate (%) All cells (Stem cells and ordinary cells)
In short: as §2

normal cells = assay: Survival rate of normal cells after test compound is added (flow cytometry, Annexin V-FITC/PI); assay type: cell-based; settings: 18 h
In short: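 Mononuclear cells from fresh or cryopreserved clinical samples, isolated by Ficoll gradient and held in serum-free IMDM (1×10^6/mL), received compound for 18 h. After labelling with marker antibodies (CD34+CD38+ for AML), Annexin V-FITC and PI staining was analysed by flow cytometry.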

[3] = Head and neck squamous cell carcinomas
[4] = read-out: Survival rate (%) All cells (Stem cells and ordinary cells)
[5] = read-out: Survival rate (%) Stem cells

CN(C)C[C@@H]1C(=O)O[C@H]2[C@H]1CCC1(CC1)[C@@H]1CCC3(CC3)[C@H]21 [Compound 35]
82%: viability at 10 µM (cancer stem cells; AML) | viability at 10 µM (cancer stem cells; Colorectal cancer) | viability at 10 µM (cancer stem cells; [3]) | viability at 10 µM (cancer stem cells; Laryngeal cancer) | viability at 10 µM (cancer stem cells; Lung adenocarcinoma)
95%: viability at 10 µM (normal cells; [4])
81%: viability at 10 µM (cancer stem cells; Brain tumor) | viability at 10 µM (cancer stem cells; CLL) | viability at 10 µM (cancer stem cells; Glioma) | viability at 20 µM (cancer stem cells; Retinoblastoma) | viability at 20 µM (cancer cells; Pancreatic cancer)
83%: viability at 20 µM (cancer cells; Brain tumor) | viability at 20 µM (cancer cells; CLL) | viability at 20 µM (cancer cells; Glioma)
86%: viability at 10 µM (cancer stem cells; Breast cancer) | viability at 10 µM (cancer stem cells; Nasopharynx cancer) | viability at 20 µM (cancer cells; Laryngeal cancer) | viability at 20 µM (cancer cells; Liver cancer)
0.57 ± 0.057 ng/mL: Content of TNF-α in culture supernatant of synoviocyte (x ± s) [2]
74%: viability at 20 µM (cancer stem cells; Liver cancer)
0.41 ± 0.056 ng/mL: Content of IL-1β in culture supernatant of synoviocyte (x ± s) [1]
88%: viability at 10 µM (cancer stem cells; Retinoblastoma) | viability at 20 µM (cancer cells; CML) | viability at 20 µM (cancer cells; Colon adenocarcinoma) | viability at 20 µM (cancer cells; Lung cancer) | viability at 20 µM (cancer cells; Ovarian cancer) | viability at 10 µM (cancer cells; Pancreatic cancer) | viability at 10 µM (cancer cells; Prostate cancer)
79%: viability at 10 µM (cancer stem cells; Pancreatic cancer) | viability at 20 µM (cancer stem cells; Prostate cancer)
85%: viability at 10 µM (cancer stem cells; Gastric cancer) | viability at 10 µM (cancer stem cells; Gastrointestinal tumor) | viability at 10 µM (cancer stem cells; Prostate cancer) | viability at 10 µM (cancer stem cells; Skin cancer) | viability at 20 µM (cancer cells; Prostate cancer)
77%: viability at 20 µM (cancer stem cells; Gastric cancer) | viability at 20 µM (cancer stem cells; Gastrointestinal tumor) | viability at 20 µM (cancer stem cells; Skin cancer)
87%: viability at 10 µM (cancer stem cells; Children hepatoblastoma) | viability at 10 µM (cancer stem cells; Malignant melanoma) | viability at 20 µM (cancer cells; AML) | viability at 20 µM (cancer cells; Brain glioma) | viability at 10 µM (cancer cells; Brain tumor) | viability at 10 µM (cancer cells; CLL) | viability at 20 µM (cancer cells; Children hepatoblastoma) | viability at 20 µM (cancer cells; Colorectal cancer) | viability at 10 µM (cancer cells; Glioma) | viability at 20 µM (cancer cells; [3]) | viability at 20 µM (cancer cells; Lung adenocarcinoma)
72%: viability at 20 µM (cancer stem cells; Pancreatic cancer)
91%: viability at 10 µM (cancer cells; AML) | viability at 10 µM (cancer cells; CML) | viability at 10 µM (cancer cells; Colon adenocarcinoma) | viability at 10 µM (cancer cells; Colorectal cancer) | viability at 10 µM (cancer cells; [3]) | viability at 10 µM (cancer cells; Lung adenocarcinoma) | viability at 10 µM (cancer cells; Lung cancer) | viability at 10 µM (cancer cells; Malignant melanoma) | viability at 10 µM (cancer cells; Ovarian cancer) | viability at 10 µM (cancer cells; Retinoblastoma) | viability at 10 µM (normal cells; [5])
92%: viability at 10 µM (cancer cells; Brain glioma) | viability at 20 µM (cancer cells; Breast cancer) | viability at 10 µM (cancer cells; Gastric cancer) | viability at 10 µM (cancer cells; Gastrointestinal tumor) | viability at 20 µM (cancer cells; Nasopharynx cancer) | viability at 10 µM (cancer cells; Skin cancer)
93%: viability at 10 µM (cancer cells; Breast cancer) | viability at 10 µM (cancer cells; Nasopharynx cancer)
73%: viability at 20 µM (cancer stem cells; AML) | viability at 20 µM (cancer stem cells; Colorectal cancer) | viability at 20 µM (cancer stem cells; [3]) | viability at 20 µM (cancer stem cells; Lung adenocarcinoma)
75%: viability at 20 µM (cancer stem cells; Brain tumor) | viability at 20 µM (cancer stem cells; CLL) | viability at 20 µM (cancer stem cells; Glioma) | viability at 20 µM (cancer stem cells; Malignant melanoma)
84%: viability at 10 µM (cancer stem cells; Brain glioma) | viability at 10 µM (cancer stem cells; CML) | viability at 10 µM (cancer stem cells; Colon adenocarcinoma) | viability at 10 µM (cancer stem cells; Liver cancer) | viability at 10 µM (cancer stem cells; Lung cancer) | viability at 10 µM (cancer stem cells; Ovarian cancer) | viability at 20 µM (cancer cells; Malignant melanoma)
94%: viability at 10 µM (cancer cells; Children hepatoblastoma) | viability at 20 µM (normal cells; [4])
76%: viability at 20 µM (cancer stem cells; Children hepatoblastoma) | viability at 20 µM (cancer stem cells; Laryngeal cancer)
89%: viability at 20 µM (cancer cells; Gastric cancer) | viability at 20 µM (cancer cells; Gastrointestinal tumor) | viability at 10 µM (cancer cells; Laryngeal cancer) | viability at 10 µM (cancer cells; Liver cancer) | viability at 20 µM (cancer cells; Retinoblastoma) | viability at 20 µM (cancer cells; Skin cancer)
78%: viability at 20 µM (cancer stem cells; Brain glioma) | viability at 20 µM (cancer stem cells; Breast cancer) | viability at 20 µM (cancer stem cells; CML) | viability at 20 µM (cancer stem cells; Colon adenocarcinoma) | viability at 20 µM (cancer stem cells; Lung cancer) | viability at 20 µM (cancer stem cells; Nasopharynx cancer) | viability at 20 µM (cancer stem cells; Ovarian cancer)
90%: viability at 20 µM (normal cells; [5])
